In US9273043B2, “TRPV1 antagonists including dihydroxy substituent and uses thereof” (Purdue Pharma L.P., priority 2011, dated 2016) one finds IC50 and solubility data, which are given here for 10 compounds.

Converted amounts (≈) assume the structure as drawn. Read-outs that look alike come from different tables or passages of the source.

In data set [1] the target is T1, human TRPV1 (Homo sapiens (Human), UniProt Q8NER1). The data set is described as follows: pH-based assay, Protocol 2, TRPV1/CHO cells (hpH-CHO), Fura-2 Ca2+ influx. Format: cell-based. Conditions: pH 5.0-5.1 (H2SO4), mean ± SEM.
A short description of data set [2]: Aqueous solubility at pH 1.2 and pH 6.8. To be noted: aqueous solution. The data set is classed as physicochemical.
Data set [3] deals with T1, human TRPV1. The data set is described as follows: Capsaicin-based assay, Protocol 2, TRPV1/CHO cells (hCAP-CHO), Fluo-4 FLIPR. The data set is classed as cell-based. Conditions: 100 nM capsaicin, mean ± SEM. In outline: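 CHO cells stably transfected with human TRPV1 cDNA (G418-selected) were loaded with 3 μM Fluo-4 for 1 h, washed, then read on FLIPR with 15 s baseline before additions. Compound tested at final 100 μM to 1.5625 μM against capsaicin stimulation; calcium fluorescence time course curve-fitted.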

Setting [4] is: pH 1.2, simulated gastric fluid, read-out: aqueous solubility at pH 1.2.
[5] abbreviates: pH 6.8, aqueous buffer, read-out: aqueous solubility at pH 6.8.

T1 sequence (Q8NER1 whole entry, looked up): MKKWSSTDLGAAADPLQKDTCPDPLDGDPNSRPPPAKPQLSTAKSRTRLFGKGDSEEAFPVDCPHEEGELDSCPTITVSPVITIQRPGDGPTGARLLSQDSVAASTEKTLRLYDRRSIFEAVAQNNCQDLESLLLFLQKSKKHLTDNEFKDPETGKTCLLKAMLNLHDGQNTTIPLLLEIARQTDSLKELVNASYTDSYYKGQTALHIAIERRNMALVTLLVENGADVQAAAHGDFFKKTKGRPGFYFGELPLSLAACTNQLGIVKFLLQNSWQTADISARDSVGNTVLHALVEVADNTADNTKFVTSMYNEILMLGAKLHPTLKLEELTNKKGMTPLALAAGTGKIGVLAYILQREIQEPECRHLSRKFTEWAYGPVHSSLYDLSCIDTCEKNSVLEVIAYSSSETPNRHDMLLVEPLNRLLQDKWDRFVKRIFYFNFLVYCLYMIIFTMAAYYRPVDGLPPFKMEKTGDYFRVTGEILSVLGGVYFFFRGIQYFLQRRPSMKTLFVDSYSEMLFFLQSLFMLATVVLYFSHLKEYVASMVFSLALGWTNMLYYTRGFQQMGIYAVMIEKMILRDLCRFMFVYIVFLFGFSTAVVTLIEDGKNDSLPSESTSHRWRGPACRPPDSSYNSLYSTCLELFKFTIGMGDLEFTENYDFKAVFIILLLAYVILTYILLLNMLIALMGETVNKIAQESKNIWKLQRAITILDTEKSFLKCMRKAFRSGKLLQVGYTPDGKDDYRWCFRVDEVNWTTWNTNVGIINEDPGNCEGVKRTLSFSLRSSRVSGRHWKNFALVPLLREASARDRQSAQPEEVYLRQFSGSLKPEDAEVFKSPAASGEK

`C[C@H]1CN(c2ncc([C@H](O)CO)cc2F)CCN1C(=O)Nc1nc2ccccc2s1` [A122(a), (S)—N-(benzo[d]thiazol-2-yl)-4-(5-((S)-1,2-dihydroxyethyl)-3-fluoropyridin-2-yl)-2-methylpiperazine-1-carboxamide]: the values for the IC50 on human TRPV1 [1] and at human TRPV1 [3] were 98 ± 27 nM and 177 ± 69 nM, respectively. Also, the solubility in data set [2] (setting [4]) and in data set [2] (setting [5]) was above 50 µM throughout.
In the case of `C[C@@H]1CN(C(=O)Nc2nc3ccc(F)cc3s2)CCN1c1ncc([C@H](O)CO)cc1F` [A125(b), (R)-4-{5-[(S)-1,2-dihydroxyethyl]-3-fluoropyridin-2-yl}-N-(6-fluorobenzo[d]thiazol-2-yl)-3-methylpiperazine-1-carboxamide], the IC50 (as a rule, the concentration at which inhibition is half-maximal) amounted to 81 ± 13 nM against human TRPV1 [1] and 112 ± 32 nM against human TRPV1 [3].
Take `Cc1ccc2nc(NC(=O)N3CCN(c4ncc([C@H](O)CO)cc4F)C[C@@H]3C)sc2c1` [A126(a), (S)-4-(5-((S)-1,2-dihydroxyethyl)-3-fluoropyridin-2-yl)-2-methyl-N-(6-methylbenzo[d]thiazol-2-yl)piperazine-1-carboxamide]: the IC50 against human TRPV1 [1] is 12.2 ± 5.9 nM; on human TRPV1 [3], 40.2 ± 11 nM. Moreover, the solubility – broadly, the concentration that dissolves in the medium under given conditions – was above 50 µM in data set [2] (setting [4]) and 14 µM (≈ 6.24 µg/mL) in data set [2] (setting [5]).
On the same counts, the results for `C[C@H]1CN(c2ncc([C@H](O)CO)cc2F)CCN1C(=O)Nc1nc2cc(F)c(F)cc2s1` [A158(a), (S)—N-(5,6-difluorobenzo[d]thiazol-2-yl)-4-(5-((S)-1,2-dihydroxyethyl)-3-fluoropyridin-2-yl)-2-methylpiperazine-1-carboxamide] are 17.1 nM, 62.4 ± 13.8 nM, above 50 µM and 5 µM (≈ 2.34 µg/mL).
Take `C[C@@H]1CN(C(=O)Nc2nc3cc(F)c(F)cc3s2)CCN1c1ncc([C@H](O)CO)cc1F` [AE, (R)—N-(5,6-difluorobenzo[d]thiazol-2-yl)-4-{5-[(S)-1,2-dihydroxyethyl]-3-fluoropyridin-2-yl}-3-methylpiperazine-1-carboxamide]: the IC50 against human TRPV1 [1] came out at 40.8 ± 3.2 nM; against human TRPV1 [3] it was 68 ± 17 nM.
Consider `C[C@H](O)[C@@H](O)c1cnc(N2CCN(C(=O)Nc3nc4cc(F)c(F)cc4s3)C[C@H]2C)c(F)c1` [B158(j), (R)—N-(5,6-difluorobenzo[d]thiazol-2-yl)-4-{5-[(1S,2S)-1,2-dihydroxypropyl]-3-fluoropyridin-2-yl}-3-methylpiperazine-1-carboxamide], for which the IC50 is 136 ± 20 nM against human TRPV1 [1] and 49 ± 10 nM against human TRPV1 [3].
For `C[C@H](O)[C@@H](O)c1cnc(N2CCN(C(=O)Nc3nc4ccc(F)cc4s3)CC2)c(Cl)c1` [C4(r), 4-{3-Chloro-5-[(1S,2S)-1,2-dihydroxypropyl]pyridin-2-yl}-N-(6-fluorobenzo[d]thiazol-2-yl)piperazine-1-carboxamide] the same measures were 17.4 ± 1.2 nM and 42.8 ± 2 nM.
As to `C[C@H](O)[C@@H](O)c1cnc(N2CCN(C(=O)Nc3nc4ccc(F)cc4s3)CC2)c(F)c1` [C125(r), 4-(5-((1S,2S)-1,2-dihydroxypropyl)-3-fluoropyridin-2-yl)-N-(6-fluorobenzo[d]thiazol-2-yl)piperazine-1-carboxamide], the IC50 on human TRPV1 [1] was found to be 69 ± 3 nM; against human TRPV1 [3], 99 ± 24 nM. Further, the figures for the solubility in data set [2] (setting [4]) and in data set [2] (setting [5]) were above 50 µM and 3 µM (≈ 1.35 µg/mL), respectively.
For `Cc1ccc2nc(NC(=O)N3CCN(c4ncc([C@H](O)[C@H](C)O)cc4F)CC3)sc2c1` [C126(r), 4-[5-((1S,2S)-1,2-Dihydroxy-propyl)-3-fluoro-pyridin-2-yl]piperazine-1-carboxylic acid (6-methyl-benzothiazol-2-yl)-amide] the same measures were 67 ± 12 nM, 71 ± 20 nM, above 50 µM and 4 µM (≈ 1.78 µg/mL).
Consider `Cc1cc2nc(NC(=O)N3CCN(c4ncc([C@H](O)[C@H](C)O)cc4F)CC3)sc2cc1C` [C170(r), 4-(5-((1S,2S)-1,2-dihydroxypropyl)-3-fluoropyridin-2-yl)-N-(5,6-dimethylbenzo[d]thiazol-2-yl)piperazine-1-carboxamide], for which the IC50 against human TRPV1 [1] stood at 32.8 ± 8.1 nM; at human TRPV1 [3] it was 89 ± 34 nM.
